Measurements: BigSolDB 2.1

NS(=O)(=O)c1ccccc1
Conditions | solubility (mole fraction)
in acetone, 273.15 K | 0.117
in acetone, 279.15 K | 0.123
in acetone, 283.45 K | 0.13
in acetone, 288.95 K | 0.138
in acetone, 293.25 K | 0.145
in acetone, 298.85 K | 0.156
in acetone, 303.15 K | 0.165
in acetone, 308.15 K | 0.176
in acetone, 313.15 K | 0.188
in acetone, 317.65 K | 0.201
in acetone, 323.15 K | 0.217
in acetonitrile, 273.15 K | 0.0348
in acetonitrile, 279.15 K | 0.0396
in acetonitrile, 283.45 K | 0.0446
in acetonitrile, 288.95 K | 0.0507
in acetonitrile, 293.25 K | 0.0568
in acetonitrile, 298.85 K | 0.0649
in acetonitrile, 303.15 K | 0.0723
in acetonitrile, 308.15 K | 0.0817
in acetonitrile, 313.15 K | 0.0928
in acetonitrile, 317.65 K | 0.104
in acetonitrile, 323.15 K | 0.118
in cyclohexanone, 273.15 K | 0.114
in cyclohexanone, 279.15 K | 0.12
in cyclohexanone, 283.85 K | 0.126
in cyclohexanone, 289.15 K | 0.134
in cyclohexanone, 293.75 K | 0.142
in cyclohexanone, 299.15 K | 0.151
in cyclohexanone, 303.75 K | 0.161
in cyclohexanone, 309.15 K | 0.171
in cyclohexanone, 313.35 K | 0.181
in cyclohexanone, 319.15 K | 0.195
in cyclohexanone, 324.45 K | 0.21
in cyclopentanone, 273.15 K | 0.14
in cyclopentanone, 279.15 K | 0.146
in cyclopentanone, 283.85 K | 0.152
in cyclopentanone, 289.15 K | 0.16
in cyclopentanone, 293.75 K | 0.167
in cyclopentanone, 299.15 K | 0.177
in cyclopentanone, 303.75 K | 0.187
in cyclopentanone, 309.15 K | 0.201
in cyclopentanone, 313.35 K | 0.21
in cyclopentanone, 319.15 K | 0.228
in cyclopentanone, 324.45 K | 0.245
in dichloromethane, 273.15 K | 0.00134
in dichloromethane, 279.15 K | 0.00175
in dichloromethane, 283.45 K | 0.00214
in dichloromethane, 288.95 K | 0.00278
in dichloromethane, 293.25 K | 0.00335
in dichloromethane, 298.85 K | 0.00424
in dichloromethane, 303.15 K | 0.00495
in dichloromethane, 308.15 K | 0.00602
in dichloromethane, 312.15 K | 0.00691
in ethanol, 273.15 K | 0.0159
in ethanol, 279.15 K | 0.0182
in ethanol, 283.45 K | 0.0199
in ethanol, 288.95 K | 0.0231
in ethanol, 293.25 K | 0.0261
in ethanol, 298.85 K | 0.0307
in ethanol, 303.15 K | 0.0355
in ethanol, 308.15 K | 0.041
in ethanol, 313.15 K | 0.048
in ethanol, 317.65 K | 0.0547
in ethanol, 323.15 K | 0.0635
in ethyl acetate, 273.15 K | 0.0325
in ethyl acetate, 279.15 K | 0.036
in ethyl acetate, 283.45 K | 0.0389
in ethyl acetate, 288.95 K | 0.0429
in ethyl acetate, 293.25 K | 0.0467
in ethyl acetate, 298.85 K | 0.0517
in ethyl acetate, 303.15 K | 0.0563
in ethyl acetate, 308.15 K | 0.0615
in ethyl acetate, 313.15 K | 0.0682
in ethyl acetate, 317.65 K | 0.0736
in ethyl acetate, 323.15 K | 0.082
in ethyl formate, 273.15 K | 0.018
in ethyl formate, 279.15 K | 0.0204
in ethyl formate, 283.45 K | 0.0228
in ethyl formate, 288.95 K | 0.026
in ethyl formate, 293.25 K | 0.0289
in ethyl formate, 298.85 K | 0.0327
in ethyl formate, 303.15 K | 0.0367
in ethyl formate, 308.15 K | 0.0416
in ethyl formate, 313.15 K | 0.047
in ethyl formate, 317.65 K | 0.0526
in ethyl formate, 323.15 K | 0.0596
in isobutanol, 273.15 K | 0.00387
in isobutanol, 279.15 K | 0.0045
in isobutanol, 283.85 K | 0.00537
in isobutanol, 289.15 K | 0.00666
in isobutanol, 293.75 K | 0.00808
in isobutanol, 299.15 K | 0.00996
in isobutanol, 303.75 K | 0.012
in isobutanol, 309.15 K | 0.0148
in isobutanol, 313.35 K | 0.0176
in isobutanol, 319.15 K | 0.0214
in isobutanol, 324.45 K | 0.0255
in isopentanol, 273.15 K | 0.00419
in isopentanol, 279.15 K | 0.00488
in isopentanol, 283.85 K | 0.00557
in isopentanol, 289.15 K | 0.00683
in isopentanol, 293.75 K | 0.00804
in isopentanol, 299.15 K | 0.00999
in isopentanol, 303.75 K | 0.0119
in isopentanol, 309.15 K | 0.0148
in isopentanol, 313.35 K | 0.0172
in isopentanol, 319.15 K | 0.021
in isopentanol, 324.45 K | 0.0249
in isopropanol, 273.15 K | 0.0076
in isopropanol, 279.15 K | 0.00834
in isopropanol, 283.85 K | 0.00964
in isopropanol, 289.15 K | 0.0119
in isopropanol, 293.75 K | 0.0141
in isopropanol, 299.15 K | 0.0172
in isopropanol, 303.75 K | 0.0213
in isopropanol, 309.15 K | 0.0261
in isopropanol, 313.35 K | 0.0305
in isopropanol, 319.15 K | 0.0371
in isopropanol, 324.45 K | 0.0444
in methanol, 273.15 K | 0.0295
in methanol, 279.15 K | 0.0325
in methanol, 283.45 K | 0.0357
in methanol, 288.95 K | 0.041
in methanol, 293.25 K | 0.046
in methanol, 298.85 K | 0.0536
in methanol, 303.15 K | 0.061
in methanol, 308.15 K | 0.0699
in methanol, 313.15 K | 0.0808
in methanol, 317.65 K | 0.0923
in methanol, 323.15 K | 0.107
in methyl acetate, 273.15 K | 0.0423
in methyl acetate, 279.15 K | 0.0467
in methyl acetate, 283.45 K | 0.0503
in methyl acetate, 288.95 K | 0.0556
in methyl acetate, 293.25 K | 0.0606
in methyl acetate, 298.85 K | 0.0677
in methyl acetate, 303.15 K | 0.0743
in methyl acetate, 308.15 K | 0.0823
in methyl acetate, 313.15 K | 0.0915
in methyl acetate, 317.65 K | 0.101
in methyl acetate, 323.15 K | 0.113
in n-butanol, 273.15 K | 0.00578
in n-butanol, 279.15 K | 0.00679
in n-butanol, 283.85 K | 0.00798
in n-butanol, 289.15 K | 0.00946
in n-butanol, 293.75 K | 0.011
in n-butanol, 299.15 K | 0.0135
in n-butanol, 303.75 K | 0.016
in n-butanol, 309.15 K | 0.0195
in n-butanol, 313.35 K | 0.0226
in n-butanol, 319.15 K | 0.0276
in n-butanol, 324.45 K | 0.0323
in n-pentanol, 273.15 K | 0.00474
in n-pentanol, 279.15 K | 0.00538
in n-pentanol, 283.85 K | 0.00616
in n-pentanol, 289.15 K | 0.00727
in n-pentanol, 293.75 K | 0.00894
in n-pentanol, 299.15 K | 0.0111
in n-pentanol, 303.75 K | 0.0131
in n-pentanol, 309.15 K | 0.0164
in n-pentanol, 313.35 K | 0.0188
in n-pentanol, 319.15 K | 0.0232
in n-pentanol, 324.45 K | 0.0278
in n-propanol, 273.15 K | 0.00806
in n-propanol, 279.15 K | 0.00907
in n-propanol, 283.85 K | 0.0103
in n-propanol, 289.15 K | 0.0122
in n-propanol, 293.75 K | 0.0143
in n-propanol, 299.15 K | 0.0175
in n-propanol, 303.75 K | 0.0208
in n-propanol, 309.15 K | 0.0254
in n-propanol, 313.35 K | 0.0293
in n-propanol, 319.15 K | 0.036
in n-propanol, 324.45 K | 0.0423
